Assay results from PubChem BioAssay AID1963829 (Molecular Pharmacology Branch, DTP, NCI, 2024).

System: 935938-334-R-J1-PDC complex spheroid viability
Assay: Anticancer human tumor 935938-334-R-J1-PDC patient-derived small intestine adenocarcinoma cell line growth inhibition [POLQ]
Details: for IC50: curve of first compound; for viability, T/C: stronger effect = lower value; active means viability on the fitted dose curve at most 10% of control; inactive means the rest
Procedure: Multicellular complex tumor spheroid response to Polymerase (POL) inhibitors (novobiocin, ART-558, RP6685) in combination with a variety of drugs and investigational agents in selected tumor cell lines
The POL inhibitors (novobiocin, ART-558, and RP6685) were evaluated both individually and in combination with standard of care and investigational anticancer small molecules within a complex spheroid model of solid tumors. . Complex spheroids include a stromal component modeled by human endothelial cells (HUVEC) and fibroblasts modeled by human mesenchymal stem cells (MSCs). The concentration ranges selected for each drug and investigational agent were based upon clinically achievable concentrations if the clinical Cmax of the agent was known.
Compounds. The drugs and investigational agents: novobiocin (NSC847541), ART-558 (NSC835418), RP-6685 (NSC848927), peposertib (NSC802822), ceralasertib (NSC780249), elimusertib (NSC800525), camonsertib (NSC841442), AZD-1390 (NSC803789), olaparib (NSC753686), talazoparib (NSC767125), rucaparib (NSC756644), sotorasib (NSC818433), MRTX-1133 (NSC836407), SN-38 (NSC673596), topotecan (NSC609699), epotoside (NSC141540), doxorubicin (NSC123127), gemcitabine (NSC613327), 5-fluorouracil (NSC19893), paclitaxel (NSC125973), vemurafenib (NSC761431), MSA-2 (NSC828583), SN-011 (NSC837082), adavosertib (NSC754352), prexasertib (NSC758257), carboplatin (NSC241240) and oxaliplatin (NSC266046), were obtained from the National Cancer Institute (NCI) Developmental Therapeutics Program Chemical Repository (21). The FDA-approved anticancer drug set is available from the Developmental Therapeutics Program at https://dtp.cancer.gov/organization/dscb/obtaining/. […] The stock solutions were prepared in dimethyl sulfoxide (DMSO, Sigma-Aldrich, St. Louis, MO, cat. D2650), except for the platinum compounds which were prepared in saline (Quality Biological, Gaithersburg, MD, cat. 114-055-101), at 800-fold the tested concentration and stored at -70 degrees C prior to their use. All drugs and investigational agents were tested over a range starting from a high concentration at or near the clinical Cmax and decreasing in half-log increments. If the clinical Cmax for an agent had not been determined, the highest concentration tested was 10 microM, except for SN-38, which was tested at a high concentration of 1 microM.
Cell Culture. All cells were maintained in an incubator at 37 degrees C and 5% CO2 with 95% humidity. The PDC lines were cultured according to standard operating procedures established by the NCI PDMR (https://pdmr.cancer.gov). Table 3 of the manuscript, lists the cell lines along with the number of the three cell types plated to form the mct-spheroids and media for tumor cell growth. After thawing, all PDC lines, except 997537-175-T-J1-PDC and 415267-285-R-J2-PDC, were cultured in Matrigel-coated flasks prepared with a working solution of 1X Ham's F-12 nutrient mix, without supplementation (Thermo Fisher Scientific, cat. 11765054), 100 U/mL penicillin-streptomycin (Thermo Fisher Scientific, cat. 15140122), and 2.5% Matrigel (Corning Inc., Corning, NY, cat. 354248) for the first three passages. The two PDC lines 997537-175-T-J1-PDC and 415267-285-R-J2-PDC were cultured on uncoated flasks. The 857933-349-R-J2-PDC line was cultured in 6C/Colon 1B media containing advanced DMEM/F-12 (Thermo Fisher Scientific, cat. 12634028), 10 mM HEPES (Thermo Fisher Scientific, cat. 15630080), 1X GlutaMAX supplement (Thermo Fisher Scientific, cat. 35050061), 0.1 mg/mL primocin (InvivoGen, San Diego, CA, cat. ant-pm-2), 10% defined fetal bovine serum, heat inactivated (HyClone Laboratories Inc., Logan, UT, cat. SH30070.03HI), 50% L-WRN conditioned media (ATCC, cat. CRL-3276), 1.25 mM N-Acetyl-L-cysteine (Sigma-Aldrich, cat. A9165), 10 mM nicotinamide (Sigma-Aldrich, cat. N0636), 1X B-27 supplement (Thermo Fisher Scientific, cat. 17504044), 1X N-2 supplement (Thermo Fisher Scientific, cat. […]

[1] = second compound 0.0316 µM, first compound 0.0316 µM
[2] = second compound 0.0316 µM, first compound 0.1 µM
[3] = second compound 0.0316 µM, first compound 0.316 µM
[4] = second compound 0.0316 µM, first compound 1 µM
[5] = second compound 0.1 µM, first compound 0.0316 µM
[6] = second compound 0.1 µM, first compound 0.1 µM
[7] = second compound 0.1 µM, first compound 0.316 µM
[8] = second compound 0.1 µM, first compound 1 µM
[9] = second compound 0.316 µM, first compound 0.0316 µM
[10] = second compound 0.316 µM, first compound 0.1 µM
[11] = second compound 0.316 µM, first compound 0.316 µM
[12] = second compound 0.316 µM, first compound 1 µM
[13] = second compound 1 µM, first compound 0.0316 µM
[14] = second compound 1 µM, first compound 0.1 µM
[15] = second compound 1 µM, first compound 0.316 µM
[16] = second compound 1 µM, first compound 1 µM
[17] = second compound 3.16 µM, first compound 0.0316 µM
[18] = second compound 3.16 µM, first compound 0.1 µM
[19] = second compound 3.16 µM, first compound 0.316 µM
[20] = second compound 3.16 µM, first compound 1 µM
[21] = second compound 10 µM, first compound 0.0316 µM
[22] = second compound 10 µM, first compound 0.1 µM
[23] = second compound 10 µM, first compound 0.316 µM
[24] = second compound 10 µM, first compound 1 µM
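Further: spheroids exposed to drugs for seven days before viability read.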
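Wherever viability, T/C is given: 100% = DMSO vehicle control wells.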

C=CCn1c(=O)c2cnc(Nc3ccc(N4CCN(C)CC4)cc3)nc2n1-c1cccc(C(C)(C)O)n1 + Nc1ccc(C#CCN(C(=O)Cc2ncc(C(F)(F)F)cc2C(F)(F)F)c2ccc(F)cc2)nn1
592 nM: IC50 (second compound 0.316 µM)
273 nM: IC50 (second compound 1 µM)
601 nM: IC50 (second compound 3.16 µM)
661 nM: IC50 (second compound 0.1 µM)
478 nM: IC50 (second compound 10 µM)
inactive: viability, T/C (second compound 0.0316 µM, first compound 0.00316 µM) 90.4% | viability, T/C (second compound 0.0316 µM, first compound 0.01 µM) 93.5% | viability, T/C [1] 73.8% | viability, T/C [2] 79.8% | viability, T/C [3] 77.2% | viability, T/C [4] 19.1% | viability, T/C (second compound 0.1 µM, first compound 0.00316 µM) 76.5% | viability, T/C (second compound 0.1 µM, first compound 0.01 µM) 81.3% | viability, T/C [5] 92.6% | viability, T/C [6] 96.6% | viability, T/C [7] 89.5% | viability, T/C [8] 29.1% | viability, T/C (second compound 0.316 µM, first compound 0.00316 µM) 85.8% | viability, T/C (second compound 0.316 µM, first compound 0.01 µM) 70.4% | viability, T/C [9] 72.1% | viability, T/C [10] 99.6% | viability, T/C [11] 77.1% | viability, T/C [12] 26.2% | viability, T/C (second compound 1 µM, first compound 0.00316 µM) 80% | viability, T/C (second compound 1 µM, first compound 0.01 µM) 105% | viability, T/C [13] 82.3% | viability, T/C [14] 107% | viability, T/C [15] 43.6% | viability, T/C [16] 25.4% | viability, T/C (second compound 3.16 µM, first compound 0.00316 µM) 95.9% | viability, T/C (second compound 3.16 µM, first compound 0.01 µM) 79.3% | viability, T/C [17] 61.8% | viability, T/C [18] 85.4% | viability, T/C [19] 88.7% | viability, T/C [20] 24.3% | viability, T/C (second compound 10 µM, first compound 0.00316 µM) 96.7% | viability, T/C (second compound 10 µM, first compound 0.01 µM) 82.6% | viability, T/C [21] 118% | viability, T/C [22] 81.3% | viability, T/C [23] 65.4% | viability, T/C [24] 25.2%
534 nM: IC50 (second compound 0.0316 µM)

C#Cc1c(F)ccc2cc(O)cc(-c3ncc4c(N5CC6CCC(C5)N6)nc(OCC56CCCN5CC(F)C6)nc4c3F)c12 (centres undefined) + COC1C(OC(N)=O)C(O)C(Oc2ccc3c(O)c(NC(=O)c4ccc(O)c(CC=C(C)C)c4)c(=O)oc3c2C)OC1(C)C
6230 nM: IC50 (second compound 3.16 µM)
1840 nM: IC50 (second compound 0.316 µM)
848 nM: IC50 (second compound 0.0316 µM)
inactive: viability, T/C [1] 84.6% | viability, T/C [2] 100% | viability, T/C [3] 70.6% | viability, T/C [4] 47.5% | viability, T/C (second compound 0.0316 µM, first compound 3.16 µM) 47.1% | viability, T/C (second compound 0.0316 µM, first compound 10 µM) 29.9% | viability, T/C [5] 76.3% | viability, T/C [6] 93.5% | viability, T/C [7] 111% | viability, T/C [8] 73.1% | viability, T/C (second compound 0.1 µM, first compound 3.16 µM) 61.5% | viability, T/C (second compound 0.1 µM, first compound 10 µM) 41% | viability, T/C [9] 106% | viability, T/C [10] 79.6% | viability, T/C [11] 121% | viability, T/C [12] 52% | viability, T/C (second compound 0.316 µM, first compound 3.16 µM) 62.6% | viability, T/C (second compound 0.316 µM, first compound 10 µM) 33.8% | viability, T/C [13] 92.8% | viability, T/C [14] 81.2% | viability, T/C [15] 75.8% | viability, T/C [16] 65% | viability, T/C (second compound 1 µM, first compound 3.16 µM) 42% | viability, T/C (second compound 1 µM, first compound 10 µM) 44.1% | viability, T/C [17] 96.7% | viability, T/C [18] 72% | viability, T/C [19] 75.9% | viability, T/C [20] 86.4% | viability, T/C (second compound 3.16 µM, first compound 3.16 µM) 43.1% | viability, T/C (second compound 3.16 µM, first compound 10 µM) 48.6% | viability, T/C [21] 65.6% | viability, T/C [22] 97.9% | viability, T/C [23] 77.4% | viability, T/C [24] 57.2% | viability, T/C (second compound 10 µM, first compound 3.16 µM) 54.8% | viability, T/C (second compound 10 µM, first compound 10 µM) 43.9%
2620 nM: IC50 (second compound 1 µM)
2920 nM: IC50 (second compound 10 µM)
5680 nM: IC50 (second compound 0.1 µM)
